Laboratory results taken from US9738599B2, “Thromboxane receptor antagonists” (UNIVERSITY COLLEGE DUBLIN, NATIONAL UNIVERSITY OF IRELAND, …, priority 2012, dated 2017).

Legend:
TPβ = molecular target: T1, TPβ (Homo sapiens, UniProt P21731); assay: U46619-induced [Ca2+]i mobilization in HEK.TPβ cells; format: cell-based; conditions: for remaining activity at 1 µM / Calcium mobilization, Percentage of Control, TPβ: 1 μM U46619, HEK.TPβ, mean ± S.E.M.; for remaining activity at 1 µM: read-out: Calcium mobilization, Percentage of Control, TPβ; for inhibition at 0.5 µM: antagonist 0.5 μM, read-out: Inhibition of U46619-mediated responses in HEK.TPβ cells; for Reduction of U46619-mediated calcium mobilization in HEK.TPβ cells: at 1 & 10 μM concentrations
T1 construct: expressed in transfected cells
Text: (§1) The appropriate functional test for the evaluation of the agonistic and/or antagonistic potency of the compounds of the invention is the determination of calcium flux. Both TPα and […] are coupled to the G-protein Gαq. Therefore, stimulation of these receptors ultimately leads to a release of intracellular calcium ([Ca^2+]i) from intracellular stores. Consequently, the determination of [Ca^2+]i flux represents an appropriate functional test for the evaluation of the agonistic/antagonistic potency of compounds of the invention. Calcium can be measured using a molecule characterized by the covalent combination of a Ca^2+ chelating group and a fluorophore group. The Ca^2+ binding properties of these indicators are formed by the presence of a tetracarboxylic acid core as found for example in EGTA (ethylene glycol bis(2-aminoethyl) tetraacetic acid). Binding of Ca^2+ produces a wavelength shift in either the excitation or emission fluorescence spectra or a change in the emission intensity. Whereas the Ca^2+ binding to EGTA is pH dependent, recent dyes are designed from an EGTA derivative, BAPTA (1, 2-Bis(2-Aminophenoxy)ethane-N, N, N′, N′-Tetraacetic Acid). Loading of these dyes inside cells commonly uses esterified forms (acetoxymethyl ester), which are able to cross the cell membranes and are subsequently hydrolyzed by esterases inside the cell.
(§2) Estimation of [Ca^2+]i flux is calculated from the fluorescence signal (F). For calibration, the maximal fluorescence (Fmax, Ca^2+-saturated form of the dye) as well as minimal fluorescence (Fmin, Ca^2+-free form of the dye) must be determined. These parameters are determined usually in situ after the experiment, for example by subsequent addition to the mixture of a cell-disrupting agent that releases all Ca^2+ such as Triton X100 and a potent Ca^2+-chelating agent such as EGTA. After subtraction of background fluorescence, [Ca^2+]i flux can be calculated for non-ratiometric indicators.
(§3) Intracellular [Ca^2+]i fluxes were measured using a fluorescence plate reader following a modified protocol of Kassack et al., Quantitative comparison of functional screening by measuring intracellular Ca^2+ with radioligand binding at recombinant human dopamine receptors. AAPS Pharmsci, 2002, 4(4); 102-111, in cell lines (e.g. HEK293 or other cell type) endogenously-expressing or over-expressing either TPα, TPβ or any other receptor or protein to be screened.
(§4) By way of example, HEK 293 cells which have been grown for 3-4 days in normal growth media (minimum essential media containing 10% FBS and 2 mmol/l L-glutamine), under normal growth conditions (37° C., in humidified 5% CO2 atmosphere) are washed and harvested in KREBs-HEPES buffer (118 mM NaCl, 4.7 mM KCl, 1.2 mM MgSO4, 1.2 mM KH2PO4, 4.2 mM NaHCO3, 11.7 mM D-glucose, 1.3 mM CaCl2, 10 mM HEPES, pH 7.4). Cells are then incubated with 3 µM Fluo-4 in KREBs-HEPES buffer containing 1% Pluoronic F-127, for 1 hr at 25° C. with agitation. Thereafter, cells are washed in KREBs-HEPES buffer containing 0.5% bovine serum albumin and resuspended at a final concentration of 3×10^5 cells/ml. Approximately, 5.4×10^4 cells per well are plated in a 96-well plate and pre-incubated with test compounds for 10 min prior to measuring the fluorescence intensity at 520 nm for 25 seconds at 1 second intervals to monitor baseline using the Fluoroskan Ascent. Agonist (e.g., 1 μM U46619) is injected into separate wells by the automatic pipettor and fluorescence intensity is monitored at 520 nm for 75 seconds at 1 second intervals. Thereafter, Triton X100 and EGTA are added sequentially where Fmax refers to maximal fluorescence intensity measured after permeabilization of the cells with 2% Triton X100 and Fmin refers to fluorescence intensity measured after addition of 1 mM EGTA.
(§5) The dye Fluo-4 has its excitation peak at 480 nm, in the visible spectra, which spare cells to be damaged by UV (340-360 nm) stimulation and reduces auto-fluorescence of cells. […]

TPα = molecular target: T2, TPα (Homo sapiens, UniProt P21731); assay: U46619-induced [Ca2+]i mobilization in HEK.TPα cells; format: cell-based; conditions: 1 μM U46619, mean ± S.E.M.
T2 construct: expressed in transfected cells
T2 sequence (P21731 1-343): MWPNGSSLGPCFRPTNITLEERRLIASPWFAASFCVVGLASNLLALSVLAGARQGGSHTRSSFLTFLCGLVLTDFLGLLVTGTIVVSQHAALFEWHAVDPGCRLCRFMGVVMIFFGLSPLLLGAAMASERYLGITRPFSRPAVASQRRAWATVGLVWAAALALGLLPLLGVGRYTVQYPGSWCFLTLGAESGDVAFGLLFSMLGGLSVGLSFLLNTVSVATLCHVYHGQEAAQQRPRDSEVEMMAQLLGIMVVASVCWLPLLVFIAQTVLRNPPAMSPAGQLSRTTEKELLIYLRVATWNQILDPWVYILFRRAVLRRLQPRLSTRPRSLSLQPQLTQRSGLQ
Text: as §1, §2, §3, §4, §5

platelets in whole blood = assay: U46619-mediated platelet aggregation in whole blood (Sysmex haematological analyzer); format: cell-based, human; conditions: antagonist 0.1 μM, 1 μM U46619 for 3 min
Protocol: From an efficacy point of view, this is an important assay and, physiologically, relevant with respect to the therapeutic target.
Initially, the Sysmex haematological analyzer was used to examine the effect of the TP antagonists at a single concentration (0.1 μM) on U46619 (1 μM)-mediated platelet aggregation in whole blood.
FIG. 3 illustrates effects of the TP antagonist compounds on U46619-mediated platelet aggregation. Blood was taken form healthy volunteer by venupuncture into syringes containing 3.8% sodium citrate, 10 μM Indomethacin, such that the ratio of anticoagulant: blood was 1:9. The blood was aliquoted and incubated for 10 min with TP20 and selected NTP compounds, as indicated, where the antagonist were used at 0.1 μM prior to stimulation with 1 μM U46619 for 3 min. The blood was fixed with formaldehyde and platelet numbers counted using the Sysmex haematological analyzer. Data is presented as the mean percentage of control or non-treated blood sample (Percentage of Control; %) and represent data from 3 independent experiments were samples were treated in duplicate.

T1 sequence (P21731 1-407 isoform P21731-2): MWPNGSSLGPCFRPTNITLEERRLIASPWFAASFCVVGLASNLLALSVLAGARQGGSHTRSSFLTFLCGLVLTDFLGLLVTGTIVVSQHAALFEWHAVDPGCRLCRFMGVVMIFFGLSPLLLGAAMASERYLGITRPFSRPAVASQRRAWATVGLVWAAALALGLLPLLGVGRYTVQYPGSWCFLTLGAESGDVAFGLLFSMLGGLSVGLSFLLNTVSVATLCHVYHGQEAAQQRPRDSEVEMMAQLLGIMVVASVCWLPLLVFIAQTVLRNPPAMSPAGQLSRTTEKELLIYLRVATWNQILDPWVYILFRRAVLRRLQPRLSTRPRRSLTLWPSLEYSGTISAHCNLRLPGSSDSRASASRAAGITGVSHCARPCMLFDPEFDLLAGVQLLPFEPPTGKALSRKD

| SMILES | Calcium mobilization, Percentage of Control, TPα (TPα; antagonist 1 μM) | Calcium mobilization, Percentage of Control, TPα (TPα; antagonist 10 μM) | Calcium mobilization, Percentage of Control, TPβ (TPβ; antagonist 1 μM) | Calcium mobilization, Percentage of Control, TPβ (TPβ; antagonist 10 μM) | further results |
| --- | --- | --- | --- | --- | --- |
| COc1ccc(-c2cccc(Oc3ccc(F)cc3S(=O)(=O)NC(=O)NC(C)(C)C)c2)cc1 [NTP8, N-(tert-butylcarbamoyl)-5-fluoro-2-((4′-methoxy-[1,1′-biphenyl]-3-yl)oxy)benzene-sulfonamide] | – | – | – | – | remaining activity at 1 µM (TPβ; antagonist 1 μM): 5.94 ± 1.85% |
| COc1ccc(-c2cccc(Oc3ccc(C(=O)N4CC(O)C4)cc3S(=O)(=O)NC(=O)NC(C)(C)C)c2)cc1 [NTP23, N-(tert-butylcarbamoyl)-5-(3-hydroxyazetidine-1-carbonyl)-2-((4′-methoxy-[1,1′-biphenyl]-3-yl)oxy)benzenesulfonamide] | – | – | – | – | remaining activity at 1 µM (TPβ; antagonist 1 μM): 4.84 ± 2.75% |
| COc1ccc(-c2cccc(Oc3ccc(S(C)(=O)=O)cc3S(=O)(=O)NC(=O)NC(C)(C)C)c2)cc1 [NTP27, N-(tert-butylcarbamoyl)-2-((4′-methoxy-[1,1′-biphenyl]-3-yl)oxy)-5-(methylsulfonyl) benzenesulfonamide] | 81.1 ± 10.2% | 68.4 ± 4.56% | 36.4 ± 3.80% | 16.3 ± 2.39% | – |
| COc1ccc(-c2cccc(Oc3ccc(Cl)cc3S(=O)(=O)NC(=O)NC(C)(C)C)c2)cc1 [NTP30, N-(tert-butylcarbamoyl)-5-chloro-2-((4′-methoxy-[1,1′-biphenyl]-3-yl)oxy) benzenesulfonamide] | 52.2 ± 3.90% | 23.3 ± 3.63% | 46.5 ± 5.86% | 9.31 ± 1.57% | – |
| COc1ccc(-c2cccc(Oc3ccc([N+](=O)[O-])cc3S(=O)(=O)NC(=O)NC(C)(C)C)c2)cc1 [TP20, N-(tert-butylcarbamoyl)-2-((4′-methoxy-[1,1′-biphenyl]-3-yl)oxy)-5-nitrobenzene-sulfonamide] | – | – | – | – | inhibition at 0.5 µM (TPβ): > 50%; Reduction of U46619-mediated calcium mobilization in HEK.TPβ cells (TPβ): approx. 90%; Inhibition of the U46619-mediated reduction in platelet number (platelets in whole blood): almost completely inhibited |
| CC(C)(C)NC(=O)NS(=O)(=O)c1cc([N+](=O)[O-])ccc1Oc1cccc(-c2ccc(C(F)(F)F)cc2)c1 [XII] | – | – | – | – | inhibition at 0.5 µM (TPβ): > 50% |
| Cc1ccc(Nc2ccc([N+](=O)[O-])cc2S(=O)(=O)NC(=O)NC(C)(C)C)cc1 [BM573, reference compound] | – | – | – | – | Reduction of U46619-mediated calcium mobilization in HEK.TPβ cells (TPβ): potently inhibited |
| COc1ccc(-c2cccc(Oc3ccc(C(F)(F)F)cc3S(=O)(=O)NC(=O)NC(C)(C)C)c2)cc1 [NTP3, N-(tert-butylcarbamoyl)-2-((4′-methoxy-[1,1-biphenyl]-3-yl)oxy)-5-(trifluoromethyl) benzenesulfonamide] | 69.6 ± 5.92% | 41.6 ± 5.45% | 46.0 ± 5.92% | 14.8 ± 2.44% | – |
| COc1ccc(-c2cccc(Oc3cc(C)c(C#N)cc3S(=O)(=O)NC(=O)NC(C)(C)C)c2)cc1 [NTP32, N-(tert-butylcarbamoyl)-5-cyano-2-((4′-methoxy-[1,1′-biphenyl]-3-yl)oxy)-4-methyl benzenesulfonamide] | 80.3 ± 4.21% | 69.3 ± 2.07% | 93.6 ± 4.06% | 46.2 ± 4.83% | – |
